Tests used:
[1] = tested on: primary cultured rat hepatocytes
Method: Hepatocytes isolated from rat were inoculated in a collagen-coated 24 well plate and was incubated in a CO2 incubator at 37° C. for 24 hours. Then, a certain concentration of each of the test compounds was added, and the cells were again incubated for 24 hours. The cells were then incubated in a 0.4% neutral red containing medium for 4 hours and washed once with phosphate buffer. 0.5 ml of a solution of 1% acetic acid-50% ethanol was added to the cells, which were let stand. 200 ul of the cell sample was taken and absorbance was measured at 570 nm. The cytotoxicity assay performed on hepatocytes was measured as 25% toxic concentration (TC25, uM). Then, the safety index, i.e. the TC25 value in the cytotoxicity assay in hepatocyte/the EC50 value in the triglyceride accumulation assay, was calculated.

[2] = tested on: mice with diabetes (KK/Ay); assay: Blood glucose- and blood lipid-lowering action in mice with diabetes; type: in vivo; settings: male KK/Ay mice, daily oral administration for 5 days; for Blood glucose (ED25): dose reducing blood glucose by 25%; for Triglyceride (ED25): dose reducing triglyceride by 25%
Method: Male mice with diabetes (KK/Ay: 10 weeks old, 5 animals/group) were housed and given free access to water and food. The animals received a daily oral administration of the test compounds for 5 days. After the last dose, a blood sample was drawn via the orbital sinus.
The plasma was analyzed for blood glucose content using the Glucose-E kit (YEONGDONG PHARMACEUTICAL CO. LTD., Korea), and for triglyceride content using the Triglyceride kit (YEONGDONG PHARMACEUTICAL CO. LTD., Korea).

[3] = tested on: 3T3-L1 cells; assay: Triglyceride accumulation assay; type: cell-based; settings: 4 days with compound, concentration giving 50% of maximum enhancement of rosiglitazone activation
Method: 2) Triglyceride accumulation assay (in 3T3-L1 cells)
Undifferentiated adipocyte 3T3-L1 cells were inoculated in a 24-well plate and cultivated in a CO2 incubator at 37° C. To induce differentiation of the undifferentiated adipocytes, the cells were then incubated in a differentiation medium for 48 hours. After adding a certain concentration of each of the test compounds to the differentiation medium, the cells were again incubated for 4 days. Then, the final cell sample was placed into 200 μl of 2-propanol. The amount of triglyceride in the cells were measured by Triglyceride Kit [YEONGDONG PHARMACEUTICAL CO. LTD., Korea] commercially available.

[4] = tested on: differentiated 3T3-L1 cell; assay: 2-Deoxy-D-[2,6-3H] glucose uptake assay; type: cell-based; settings: differentiated 3T3-L1 cells, 24 h with compound, 0.5 nM insulin; concentration giving 50% of maximum enhancement of insulin activation; read-out: 2-deoxyglucose uptake (EC50 nM)
Method: 1) 2-Deoxy-D-[2,6-3H] glucose uptake assay (in differentiated 3T3-L1 cell)
Undifferentiated adipocyte 3T3-L1 cells were inoculated in a 24-well plate and cultivated in a CO2 incubator at 37° C. To induce differentiation of the undifferentiated adipocytes, the cells were then incubated in a differentiation medium. After adding a certain concentration of each of the test compounds to the medium, the cells were again incubated for 24 hours. After removing the medium, the cells were washed with phosphate buffer, and 0.5 nM of insulin in phosphate buffer was added to the washed cells, followed by incubation for 40 minutes. Then, 0.5 uCi of 2-deoxy-D-[2,6-3H] glucose per well was again added to the cells, which were let stand for 4 minutes. Then, the cells were washed with phosphate buffer, and cell lysis buffer was added, so as to dissolve the cell membranes. The cell sample was placed into a liquid scintillation cocktail solution. The radioactivity of the sample was counted by a liquid scintillation counter.

Substance | Cytotoxicity in hepatocyte (TC25 uM) [1] | Safety index (TC25 nM/EC50 nM) [1] | Blood glucose (ED25) [2] | Triglyceride (ED25) [2] | EC50 [3] | EC50 [4]
5-(4-[2-(N-methyl-N-(2-(4-anilinyl)pyridinyl)amino)ethoxy]benzyl)-2,4-thiazolidinedione [Ex. 38] | 71000 nM | 12909 | 1.5 mg/kg | 7.8 mg/kg | 5.5 nM | 10.5 nM
5-(4-[2-(N-methyl-N-(2-(4-thiophenoxy)pyridinyl)amino)ethoxy]benzyl)-2,4-thiazolidinedione [Ex. 37] | 95000 nM | 79167 | 0.22 mg/kg | 1.4 mg/kg | 1.2 nM | 2.8 nM
5-(4-[2(N-methyl-N-(6-(4-anilinyl)pyrimidinyl)amino)ethoxy]benzyl)-2,4-thiazolidinedione [Ex. 21] | 81000 nM | 10800 | 2.6 mg/kg | 6.2 mg/kg | 7.5 nM | 12.8 nM
5-(4-[2-(N-methyl-N-(2-(4-anilinyl)pyridinyl)amino)ethoxy]benzylidene)-2,4-thiazolidinedione [Ex. 19] | 81000 nM | 4030 | 3.8 mg/kg | 15.6 mg/kg | 20.1 nM | 48.2 nM
5-(4-[2(N-methyl-N-(6-(4-thiophenoxy)pyrimidinyl)amino)ethoxy]benzyl)-2,4-thiazolidinedione [Ex. 32] | 89000 nM | 27813 | 1.5 mg/kg | 12.3 mg/kg | 3.2 nM | 5.9 nM

From US6787551B2, “Thiazolidinedione derivatives and pharmaceutical composition comprising the same” (Chong Kun Dang Pharmaceutical Corporation, priority 2002, dated 2004)
